The source made the active and inactive calls. The calls are words filed in the database; no cut-off is given here.
Tests used:
[1] = test system: Pituitary gland cell; assay: Effect on LH release in rat pituitary cells after 4 hrs; assay type: functional, cell-based
[2] = Stimulation of ERK phosphorylation in alphaT3-1 cells; assay type: cell-based

CC(C)C[C@H](NC(=O)[C@@H](CCCCN)NC(=O)[C@H](Cc1ccc(O)cc1)NC(=O)[C@H](CO)NC(=O)[C@H](Cc1c[nH]c2ccccc12)NC(=O)[C@H](Cc1cnc[nH]1)NC(=O)[C@@H]1CCC(=O)N1)C(=O)N[C@@H](CCCNC(=N)N)C(=O)N1CCC[C@H]1C(=O)NCC(N)=O
Activity [1]: Active | Activity [2]: Active

Cc1c(C(=O)NCCC(=O)NCCCC[C@@H](NC(=O)[C@H](Cc2ccc(O)cc2)NC(=O)[C@H](CO)NC(=O)[C@H](Cc2c[nH]c3ccccc23)NC(=O)[C@H](Cc2cnc[nH]2)NC(=O)[C@@H]2CCC(=O)N2)C(=O)N[C@@H](CC(C)C)C(=O)N[C@@H](CCCNC(=N)N)C(=O)N2CCC[C@H]2C(=O)NCC(N)=O)c(O)cc2c1C(=O)c1c(O)c([C@H]3O[C@H](CO)[C@@H](O)[C@H](O)[C@H]3O)c(O)c(O)c1C2=O
Activity [1]: Active | Activity [2]: Active
